Calls of active or inactive are those of the source.
Assays:
Format in all cases: functional, organism-based
[1] = system: Streptomyces viridochromogenes; assay: Antibacterial activity against Streptomyces viridochromogenes
Desmodesmus subspicatus = assay: Antialgal activity against Scenedesmus subspicatus
Rhizomucor miehei = assay: Antifungal activity against Mucor miehei
Escherichia coli = assay: Antibacterial activity against Escherichia coli
Chlorella vulgaris = assay: Antialgal activity against Chlorella vulgaris
Chlorella sorokiniana = assay: Antialgal activity against Chlorella sorokiniana
Candida albicans = assay: Antifungal activity against Candida albicans
Bacillus subtilis = assay: Antibacterial activity against Bacillus subtilis
Staphylococcus aureus = assay: Antibacterial activity against Staphylococcus aureus

Measured: Activity

C[C@@H](O)[C@@]1(C)NC(=O)c2ccccc2N1 (relative stereo)
inactive: [1] | Desmodesmus subspicatus | Rhizomucor miehei | Escherichia coli | Chlorella vulgaris | Chlorella sorokiniana | Candida albicans | Bacillus subtilis | Staphylococcus aureus

C[C@@H](O)[C@]1(C)NC(=O)c2ccccc2N1 (relative stereo)
inactive: [1] | Desmodesmus subspicatus | Rhizomucor miehei | Escherichia coli | Chlorella vulgaris | Chlorella sorokiniana | Candida albicans | Bacillus subtilis | Staphylococcus aureus

From ChEMBL document CHEMBL1151247, “Quinazolin-4-one derivatives from Streptomyces isolates” (J Nat Prod, 2004)
